Experiments:
Human JNK2α2 = Human JNK2α2 (Homo sapiens, UniProt P45984); assay: JNK assay in vitro (phosphorylation of GST-ATF2 with [γ-33P] ATP), JNK2; format: biochemical; details: Km concentrations of ATP and substrate
Procedure: (§1) JNK activity was measured by phosphorylation of GST-ATF2 (19-96) with [γ-^33P] ATP. […] Human JNK2α2 assay contains 1 nM enzyme, 1 μM ATF2, 8 μM ATP with 1 uCi [γ-^33P] ATP. Human JNK1α1 assay contains 2 nM enzyme, 1 μM ATF2, 6 μM ATP with 1 μCi [γ-^33P] ATP. Human JNK3 Upstate Biotech #14-501M) assay contains 2 nM enzyme, 1 μM ATF2, 4 μM ATP with 1 μCi [γ-^33P] ATP. The enzyme assay was carried out in the presence or absence of several compound concentrations. JNK and compound were pre-incubated for 10 min., followed by initiation of the enzymatic reaction by adding ATP and the substrate. The reaction mixture was incubated at 30° C. for 30 min. At the end of incubation, the reaction was terminated by transferring 25 μl of the reaction mixture to 150 μl of 10% glutathione Sepharose® slurry (Amersham # 27-4574-01) containing 135 mM EDTA. The reaction product was captured on the affinity resin, and washed on a filtration plate (Millipore, MABVNOB50) with phosphate buffered saline for six times to remove free radionucleotide. The incorporation of ^33P into ATF2 was quantified on a microplate scintillation counter (Packard Topcount). Compound inhibition potency on JNK was measured by IC50 value generated from ten concentration inhibition curves fitted into the 3-parameter model: % inhibition=Maximum/(1+(IC50/[Inhibitor])^slope). Data were analyzed on Microsoft Excel for parameter estimation.

Human JNK1α1 = Human JNK1α1 (Homo sapiens, UniProt P45983); assay: JNK assay in vitro (phosphorylation of GST-ATF2 with [γ-33P] ATP), JNK1; format: biochemical; details: Km concentrations of ATP and substrate
Chain of Human JNK1α1 (P45983 1-384 isoform P45983-2): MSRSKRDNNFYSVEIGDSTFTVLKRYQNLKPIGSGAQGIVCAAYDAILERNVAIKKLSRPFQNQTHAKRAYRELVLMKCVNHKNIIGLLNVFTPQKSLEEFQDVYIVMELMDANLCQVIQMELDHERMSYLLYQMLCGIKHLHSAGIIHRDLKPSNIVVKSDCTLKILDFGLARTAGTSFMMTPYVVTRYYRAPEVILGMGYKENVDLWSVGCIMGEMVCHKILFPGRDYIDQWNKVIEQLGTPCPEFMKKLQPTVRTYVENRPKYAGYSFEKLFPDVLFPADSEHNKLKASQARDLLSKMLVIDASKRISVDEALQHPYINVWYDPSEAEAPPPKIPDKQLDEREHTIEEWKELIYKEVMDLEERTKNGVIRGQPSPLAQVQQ
Procedure: as §1

[1] = test system: TNFα-induced IL-6 production; assay: Rat in vivo TNFα-induced IL-6 production assay; details: oral gavage 30 min prior to TNF-α challenge, plasma IL-6 90 min after challenge, female Wistar-Han rats
Procedure: Female Wistar-Han rats procured from Charles River Laboratories were allowed to acclimate for one week prior to use and achieve an approximate body weight of 101-130 g. Rats were administered test compound (N=8 per compound) via oral gavage 30 min prior to an intraperitoneal challenge of 0.5 μg recombinant rat TNF-α (Biosource). Blood was collected via cardiocentesis 90 min after TNF-α challenge. Plasma was prepared using lithium heparin separation tubes (BD microtainer) and frozen at −80° C. until analyzed. IL-6 levels were determined using a rat specific IL-6 ELISA kit (Biosource). The percent inhibition and ED50 values (calculated as the dose of compound at which […] is 50% of the control value) were determined.

Chain of Human JNK2α2 (P45984 whole entry): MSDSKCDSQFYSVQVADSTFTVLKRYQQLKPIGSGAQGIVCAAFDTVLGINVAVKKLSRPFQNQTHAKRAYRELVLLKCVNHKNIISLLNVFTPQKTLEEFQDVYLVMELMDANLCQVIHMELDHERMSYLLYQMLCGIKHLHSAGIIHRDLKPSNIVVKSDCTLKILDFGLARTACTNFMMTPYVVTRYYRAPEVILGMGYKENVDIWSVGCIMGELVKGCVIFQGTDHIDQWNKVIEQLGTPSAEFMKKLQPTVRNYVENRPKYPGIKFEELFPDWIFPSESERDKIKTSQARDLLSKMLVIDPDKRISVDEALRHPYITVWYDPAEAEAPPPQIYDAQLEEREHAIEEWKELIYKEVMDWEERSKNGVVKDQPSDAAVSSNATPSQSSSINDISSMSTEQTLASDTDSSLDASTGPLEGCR

SMILES	melting point [°C]	IC50 (Human JNK2α2) [nM]	IC50 (Human JNK1α1) [nM]	IL-6 Inhibition ([1]; dose 10 mg/Kg) [%]	IL-6 Inhibition ([1]; dose 30 mg/Kg) [%]
CN[C@H](C(=O)OC1CCN(C(=O)[C@H]2CC[C@H](Nc3nccc(-n4ccc5c(OCCCS(C)(=O)=O)cccc54)n3)CC2)CC1)C(C)C (stereo in doubt) [Compound I-15, (R)-3-Methyl-2-methylamino-butyric acid 1-(4-{4-[4-(3-methanesulfonyl-propoxy)-indol-1-yl]-pyrimidin-2-ylamino}-cyclohexanecarbonyl)-piperidin-4-yl ester]	105 to 107	40.5	10		
CC(C)(N)C(=O)OC1CCN(C(=O)[C@H]2CC[C@H](Nc3nccc(-n4ccc5c(OCCCS(C)(=O)=O)cccc54)n3)CC2)CC1 [Compound I-2, 2-Amino-2-methyl-propionic acid 1-(4-{4-[4-(3-methanesulfonyl-propoxy)-indol-1-yl]-pyrimidin-2-ylamino}-cyclohexanecarbonyl)-piperidin-4-yl ester]	219 to 220	34.7	6.8		
CC[C@H](C)[C@H](N)C(=O)OC1CCN(C(=O)[C@H]2CC[C@H](Nc3nccc(-n4ccc5c(OCCCS(C)(=O)=O)cccc54)n3)CC2)CC1 [Compound I-4, (2S,3S)-2-Amino-3-methyl-pentanoic acid 1-(4-{4-[4-(3-methanesulfonyl-propoxy)-indol-1-yl]-pyrimidin-2-ylamino}-cyclohexanecarbonyl)-piperidin-4-yl ester]	137 to 138	51.9	11.6		
CS(=O)(=O)CCCOc1cccc2c1ccn2-c1ccnc(N[C@H]2CC[C@H](C(=O)N3CCC(OC(=O)[C@@H]4CCCN4)CC3)CC2)n1 [Compound I-5, (S)-Pyrrolidine-2-carboxylic acid 1-(4-{4-[4-(3-methanesulfonyl-propoxy)-indol-1-yl]-pyrimidin-2-ylamino}-cyclohexanecarbonyl)-piperidin-4-yl ester]	147 to 148	27.4	7.4		
CC(C)[C@H](N)C(=O)OC1CCN(C(=O)[C@H]2CC[C@H](Nc3nccc(-n4ccc5c(OCCCS(C)(=O)=O)cccc54)n3)CC2)CC1 [Compound I-6, (S)-2-Amino-3-methyl-butyric acid 1-(4-{4-[4-(3-methanesulfonyl-propoxy)-indol-1-yl]-pyrimidin-2-ylamino}-cyclohexanecarbonyl)-piperidin-4-yl ester]	163 to 164	40.2	10.5		
CN1CCC[C@@H]1C(=O)OC1CCN(C(=O)[C@H]2CC[C@H](Nc3nccc(-n4ccc5c(OCCCS(C)(=O)=O)cccc54)n3)CC2)CC1 [Compound I-7, (R)-1-Methyl-pyrrolidine-2-carboxylic acid 1-(4-{4-[4-(3-methanesulfonyl-propoxy)-indol-1-yl]-pyrimidin-2-ylamino}-cyclohexanecarbonyl)-piperidin-4-yl ester]	127 to 128	55	15		
COP(=O)(OC)OC1CCN(C(=O)[C@H]2CC[C@H](Nc3nccc(-n4ccc5c(OCCCS(C)(=O)=O)cccc54)n3)CC2)CC1 [Compound I-12, Phosphoric acid 1-(4-{4-[4-(3-methanesulfonyl-propoxy)-indol-1-yl]-pyrimidin-2-ylamino}-cyclohexanecarbonyl)-piperidin-4-yl ester dimethyl ester]	135 to 136	162	48.1		
CS(=O)(=O)CCCOc1cccc2c1ccn2-c1ccnc(N[C@H]2CC[C@H](C(=O)N3CCC(OC(=O)CCC(=O)O)CC3)CC2)n1 [Compound I-14]	214.2 to 217.7	67.9	27.9		

Continued, in another order:

melting point [°C]	IC50 (Human JNK2α2) [nM]	IC50 (Human JNK1α1) [nM]	SMILES	IL-6 Inhibition ([1]; dose 10 mg/Kg) [%]	IL-6 Inhibition ([1]; dose 30 mg/Kg) [%]
202.2 to 203.2	40.8	9.4	C[C@H](N)C(=O)OC1CCN(C(=O)[C@H]2CC[C@H](Nc3nccc(-n4ccc5c(OCCCS(C)(=O)=O)cccc54)n3)CC2)CC1 [Compound I-1]		
177 to 178	67.6	23.8	CN(C)CC(=O)OC1CCN(C(=O)[C@H]2CC[C@H](Nc3nccc(-n4ccc5c(OCCCS(C)(=O)=O)cccc54)n3)CC2)CC1 [Compound I-8, Dimethylamino-acid acid 1-(4-{4-[4-(3-methanesulfonyl-propoxy)-indol-1-yl]-pyrimidin-2-ylamino}-cyclohexanecarbonyl)-piperidin-4-yl ester]	28.9	40.2
182 to 183	50.9	15.3	CN[C@@H](C)C(=O)OC1CCN(C(=O)[C@H]2CC[C@H](Nc3nccc(-n4ccc5c(OCCCS(C)(=O)=O)cccc54)n3)CC2)CC1 [Compound I-9, (S)-2-methylamino-propionic acid 1-(4-{4-[4-(3-methanesulfonyl-propoxy)-indol-1-yl]-pyrimidin-2-ylamino}-cyclohexanecarbonyl)-piperidin-4-yl ester]	28.1	49.1
150 to 200			CC[C@H](C)[C@@H](N)C(=O)OC1CCN(C(=O)[C@H]2CC[C@H](Nc3nccc(-n4ccc5c(OCCCS(C)(=O)=O)cccc54)n3)CC2)CC1 [Compound I-10, (2R,3S)-2-Amino-3-methyl-pentanoic acid 1-(4-{4-[4-(3-methanesulfonyl-propoxy)-indol-1-yl]-pyrimidin-2-ylamino}-cyclohexanecarbonyl)-piperidin-4-yl ester]		
147 to 148	115	34.7	CC[C@@H](C)[C@@H](N)C(=O)OC1CCN(C(=O)[C@H]2CC[C@H](Nc3nccc(-n4ccc5c(OCCCS(C)(=O)=O)cccc54)n3)CC2)CC1 [Compound I-11, (2R,3R)-2-Amino-3-methyl-pentanoic acid 1-(4-{4-[4-(3-methanesulfonyl-propoxy)-indol-1-yl]-pyrimidin-2-ylamino}-cyclohexanecarbonyl)-piperidin-4-yl ester]		
201.3 to 208.8	56.8	10.8	CS(=O)(=O)CCCOc1cccc2c1ccn2-c1ccnc(N[C@H]2CC[C@H](C(=O)N3CCC(OP(=O)(O)O)CC3)CC2)n1 [Compound I-13]		
127 to 128	57.2	17.6	CN1CCC[C@H]1C(=O)OC1CCN(C(=O)[C@H]2CC[C@H](Nc3nccc(-n4ccc5c(OCCCS(C)(=O)=O)cccc54)n3)CC2)CC1 [Compound I-27, (S)-1-Methyl-pyrrolidine-2-carboxylic acid 1-(4-{4-[4-(3-methanesulfonyl-propoxy)-indol-1-yl]-pyrimidin-2-ylamino}-cyclohexanecarbonyl)-piperidin-4-yl ester]	35.8	50.7
